Measured values as given in PMC4999056 (European Journal of Medicinal Chemistry, 2016).
Like-named read-outs stand apart in the source and are kept apart here.

Legend:
in vitro [1] = assay: in vitro
DENV (serotype 2) = assay: microbe, parasite or virus in culture; format: cell-based, Dengue virus serotype 2; conditions: for EC50: read-out: Dengue EC50
in vitro [2] = conditions: chlorocebus aethiops, Yellow fever CC50
YFV = assay: microbe, parasite or virus in culture; format: cell-based, yellow fever virus; conditions: for EC50: read-out: Yellow fever EC50

SMILES | CC50 (in vitro [1]; chlorocebus aethiops) [µM] | Dengue SI (DENV (serotype 2)) | EC50 (DENV (serotype 2); Dengue virus, Vero B) [µM] | CC50 (in vitro [2]) [µM] | EC50 (YFV; Yellow fever virus, Vero B) [µM] | Yellow fever SI (YFV) | further results
Cc1ccc(NC(=O)c2nccnc2C(=O)Nc2ccc(F)cc2)c(-c2cc(C)n[nH]2)c1 [6a, N^2-(4-fluorophenyl)-N^3-(4-methyl-2-(3-methyl-1H-pyrazol-5-yl)phenyl) pyrazine-2,3 dicarboxamide] | > 116 | >4 | 26.5 |  |  |  | fold reduction in inhibitory properties against dengue virus (DENV (serotype 2)): 10 fold
Cc1ccc(NC(=O)c2nccnc2C(=O)Nc2ccc(C)cc2-c2cc(C)n[nH]2)cc1 [6b, N^2-(4-methyl-2-(3-methyl-1H-pyrazol-5-yl)phenyl)-N^3-(p-tolyl)pyrazine-2,3-dicarboxamide] | > 117 | >235 | 0.5 |  |  |  | CC50 (in vitro [1]; green monkey): > 116 µM; fold increase of DENV inhibitory properties (DENV (serotype 2)): 50 fold
Cc1ccc(NC(=O)c2nccnc2C(=O)Nc2ccc(F)cc2)c(-c2cccs2)c1 [6c, N^2-(4-fluorophenyl)-N^3-(4-methyl-2-(thiophen-2-yl)phenyl)pyrazine-2,3-dicarboxamide] | > 116 | >25 | 4.6 | > 116 | 23 |  | 
Cc1ccc(NC(=O)c2nccnc2C(=O)Nc2ccc(C)cc2-c2cccs2)cc1 [6d, N^2-(4-methyl-2-(thiophen-2-yl)phenyl)-N^3-(p-tolyl)pyrazine-2,3-dicarboxamide] | > 117 | >235 | 0.5 |  |  |  | CC50 (in vitro [1]; green monkey): > 116 µM; fold increase in DENV activity for the methyl congener (DENV (serotype 2)): 10 fold
Cc1ccc(NC(=O)c2nccnc2C(=O)Nc2ccc(F)cc2)c(-c2ccc(C)s2)c1 [6e, N^2-(4-fluorophenyl)-N^3-(4-methyl-2-(5-methylthiophen-2-yl)phenyl)pyrazine-2,3-dicarboxamide] | > 112 | 1 | > 112 |  |  |  | Dengue EC50 (DENV (serotype 2)): complete loss of DENV inhibitory activity
Cc1ccc(NC(=O)c2nccnc2C(=O)Nc2ccc(C)cc2-c2ccc(C)s2)cc1 [6f, N^2-(4-methyl-2-(5-methylthiophen-2-yl)phenyl)-N^3-(p-tolyl)pyrazine-2,3-dicarboxamide] | > 113 | 1 | > 113 |  |  |  | Dengue EC50 (DENV (serotype 2)): complete loss of DENV inhibitory activity
Cc1ccc(NC(=O)c2nccnc2C(=O)Nc2ccc(F)cc2)c(-c2ccsc2)c1 [6g, N^2-(4-fluorophenyl)-N^3-(4-methyl-2-(thiophen-3-yl)phenyl)pyrazine-2,3-dicarboxamide] | > 116 | >55 | 2.1 | > 116 | 10.6 | >11 | 
Cc1ccc(NC(=O)c2nccnc2C(=O)Nc2ccc(C)cc2-c2ccsc2)cc1 [6h, N^2-(4-methyl-2-(thiophen-3-yl)phenyl)-N^3-(p-tolyl)pyrazine-2,3-dicarboxamide] |  | >29 | 0.5 to 3.4 | > 116 | > 116 | 1 | CC50 at 168 h (in vitro [1]; chlorocebus aethiops): 26 µM; EC50 (DENV (serotype 2)): < 0.9 µM
O=C(NCc1ccccc1-c1ccsc1)c1nccnc1C(=O)Nc1ccc(F)cc1 [6i, N^2-(4-fluorophenyl)-N^3-(2-(thiophen-3-yl)benzyl)pyrazine-2,3-dicarboxamide] |  | 2 | 24 |  | 3.9 | 19 | CC50 at 168 h (in vitro [1]; chlorocebus aethiops): 52 µM; CC50 at 168 h (in vitro [2]): 76 µM
Cc1ccc(NC(=O)c2nccnc2C(=O)NCc2ccccc2-c2ccsc2)cc1 [6j, N^2-(2-(thiophen-3-yl)benzyl)-N^3-(p-tolyl)pyrazine-2,3-dicarboxamide] |  | 1 | > 48 |  |  | 14 | CC50 at 168 h (in vitro [1]; chlorocebus aethiops): 48 µM; CC50 at 168 h (in vitro [2]): 75 µM; EC50 (YFV): 5.4 µM
O=C(NCc1ccc(-c2ccsc2)cc1)c1nccnc1C(=O)Nc1ccc(F)cc1 [6k, N^2-(4-fluorophenyl)-N^3-(4-(thiophen-3-yl)benzyl)pyrazine-2,3-dicarboxamide] | > 116 | 1 | > 116 | > 116 | 18.5 | >6 | 
Cc1ccc(NC(=O)c2nccnc2C(=O)NCc2ccc(-c3ccsc3)cc2)cc1 [6l, N^2-(4-(thiophen-3-yl)benzyl)-N^3-(p-tolyl)pyrazine-2,3-dicarboxamide] | > 117 | >8 | 14 | > 117 | 21.5 | >5 | fold increase in DENV activity for the methyl congener (DENV (serotype 2)): 10 fold
Cc1cc(-c2ccccc2NC(=O)c2nccnc2C(=O)Nc2ccc(F)cc2)[nH]n1 [6m, N^2-(4-fluorophenyl)-N^3-(2-(3-methyl-1H-pyrazol-5-yl)phenyl)pyrazine-2,3-dicarboxamide] | > 120 | >55 | 2.2 |  | 7.8 | 10 | CC50 at 168 h (in vitro [2]): 77 µM; fold increase of DENV inhibitory properties (DENV (serotype 2)): 12 fold
Cc1ccc(NC(=O)c2nccnc2C(=O)Nc2ccccc2-c2cc(C)n[nH]2)cc1 [6n, N^2-(2-(3-methyl-1H-pyrazol-5-yl)phenyl)-N^3-(p-tolyl)pyrazine-2,3-di-carboxamide] |  | 7 | 3.4 | > 13.6 | 0.4 | >34 | CC50 at 168 h (in vitro [1]; chlorocebus aethiops): 24 µM; fold reduced DENV inhibitory activity (DENV (serotype 2)): 7 fold
Cc1ccc(NC(=O)c2ccccc2C(=O)Nc2ccc(F)cc2)c(-c2cc(C)n[nH]2)c1 [7a, N^1-(4-fluorophenyl)-N^2-(4-methyl-2-(3-methyl-1H-pyrazol-5-yl)phenyl)phthal-amide] | > 117 | >235 | 0.5 |  |  |  | fold more inhibitory against dengue virus (DENV (serotype 2)): 5 fold
Cc1ccc(NC(=O)c2ccccc2C(=O)Nc2ccc(F)cc2)c(-c2cccs2)c1 [7b, N^1-(4-fluorophenyl)-N^2-(4-methyl-2-(thiophen-2-yl)phenyl)phthalamide] | > 117 | >29 | 4 | > 37 | 23.2 | >1.6 | 
Cc1ccc(NC(=O)c2ccccc2C(=O)Nc2ccc(C)cc2-c2cc(C)n[nH]2)cc1 [7c, N^1-(4-methyl-2-(3-methyl-1H-pyrazol-5-yl)phenyl)-N^2-(p-tolyl)phthalamide] | > 117 | >4 | 29 |  |  |  | fold loss in DENV inhibitory activity (DENV (serotype 2)): 60 fold
Cc1ccc(NC(=O)c2ccccc2C(=O)Nc2ccc(C)cc2-c2cccs2)cc1 [7d, N^1-(4-methyl-2-(thiophen-2-yl)phenyl)-N^2-(p-tolyl)phthalamide] | > 117 | >8 | 14 | > 37 | 23.2 | >1.6 | 
Cc1ccc(NC(=O)c2ccccc2C(=O)Nc2ccc(C)cc2-c2ccc(C)s2)cc1 [7e, N^1-(4-methyl-2-(5-methylthiophen-2-yl)phenyl)-N^2-(p-tolyl)phthalamide] | > 114 | >57 | 2 |  | 6.8 | 3.4 | CC50 at 168 h (in vitro [2]): 23 µM
Cc1ccc(NC(=O)c2ccccc2C(=O)Nc2ccc(F)cc2)c(-c2ccc(C)s2)c1 [7f, N^1-(4-fluorophenyl)-N^2-(4-methyl-2-(5-methylthiophen-2-yl)phenyl)phthalamide] | > 113 | >39 | 2.9 | > 113 | 6.8 | >17 | 
Cc1ccc(NC(=O)c2ccccc2C(=O)Nc2ccc(C)cc2-c2ccsc2)cc1 [7g, N^1-(4-methyl-2-(thiophen-3-yl)phenyl)-N^2-(p-tolyl)phthalamide] |  |  | 0.5 | > 117 | 1.9 | >60 | CC50 at 168 h (in vitro [1]; chlorocebus aethiops): 12.9 µM; CC50 (in vitro [1]; green monkey): > 116 µM; EC50 (DENV (serotype 2)): 0.7 µM
Cc1ccc(NC(=O)c2ccccc2C(=O)Nc2ccc(F)cc2)c(-c2ccsc2)c1 [7h, N^1-(4-fluorophenyl)-N^2-(4-methyl-2-(thiophen-3-yl)phenyl)phthalamide] |  | 16 | 3 |  | 6.5 | 10 | CC50 at 168 h (in vitro [1]; chlorocebus aethiops): 47 µM; CC50 at 168 h (in vitro [2]): 67 µM
Cc1ccc(NC(=O)c2ccccc2C(=O)NCc2ccccc2-c2ccsc2)cc1 [7j, N^1-(2-(thiophen-3-yl)benzyl)-N^2-(p-tolyl)phthalamide] |  | 17 | 3 |  | 2.6 | 23 | CC50 at 168 h (in vitro [1]; chlorocebus aethiops): 50 µM; CC50 at 168 h (in vitro [2]): 61 µM
O=C(NCc1ccc(-c2ccsc2)cc1)c1ccccc1C(=O)Nc1ccc(F)cc1 [7k, N^1-(4-fluorophenyl)-N^2-(4-(thiophen-3-yl)benzyl)phthalamide] | > 116 | >7 | 16 | > 117 | 7.4 | >16 | 
Cc1ccc(NC(=O)c2ccccc2C(=O)NCc2ccc(-c3ccsc3)cc2)cc1 [7l, N^1-(4-(thiophen-3-yl)benzyl)-N^2-(p-tolyl)phthalamide] | > 117 | >8 | 13.8 | > 117 | 3.3 | >35 | 
Cc1cc(-c2ccccc2NC(=O)c2ccccc2C(=O)Nc2ccc(F)cc2)[nH]n1 [7m, N^1-(4-fluorophenyl)-N^2-(2-(3-methyl-1H-pyrazol-5-yl)phenyl)phthalamide] | > 120 | 1 | > 120 | > 120 | 12 | >10 | 
Cc1ccc(NC(=O)c2ccccc2C(=O)Nc2ccccc2-c2cc(C)n[nH]2)cc1 [7n, N^1-(2-(3-methyl-1H-pyrazol-5-yl)phenyl)-N^2-(p-tolyl)phthalamide] | > 122 | >9 | 14.1 | > 122 | 5.8 | >21 | 
Cc1ccc(NC(=O)c2nc[nH]c2C(=O)Nc2ccc(F)cc2)c(-c2cc(C)n[nH]2)c1 [compound 1] |  |  | 2.5 |  | 3.5 |  | 
